For four compounds, CC50 results are on record in PubChem BioAssay AID602337 (The Scripps Research Institute Molecular Screening Center, 2012).

The test is described as follows: cytotoxicity of DAGLb inhibitor compounds, dose response, cytotoxicity control for DAGLb inhibitor project, cell-based, absorbance, serum and serum-free conditions (AID 602337). Conditions: mammalian cell viability, absorbance readout.

The source made the active and inactive calls. No rule for the calls is given here.

For the compound `O=C(N1CCCCC1c1ccccc1)n1cc(-c2ccc(-c3ccccc3)cc2)nn1` (stereo not drawn), the CC50 (usually the concentration at which the toxic effect on the cells reaches its halfway point) runs as follows: (with serum) > 50 µM (inactive); (without serum) > 100 µM (inactive).
Take `O=C(N1CCCCC1Cc1ccccc1)n1cc(-c2ccc(-c3ccccc3)cc2)nn1` (stereo not drawn): the CC50 reads like this: (with serum) 4.2 µM; (without serum) > 100 µM (inactive).
In the case of `COc1ccc(-c2ccc(-c3cn(C(=O)N4CCCCC4c4ccccc4)nn3)cc2)cc1` (stereo not drawn), the cytotoxic concentration (CC50) reads like this: (with serum) 5.9 µM; (without serum) > 100 µM (inactive).
`COc1ccccc1-c1ccc(-c2cn(C(=O)N3CCCCC3Cc3ccccc3)nn2)cc1` (stereo not drawn): the CC50 is 3.1 µM (with serum) and > 100 µM (inactive) (without serum).
